Two compounds from patent US20250032676A1, “3D HYDROGEL COMPOSITE HAVING CANCER CELL APOPTOTIC EFFECT AND PREPARATION METHOD THEREOF” (DONGGUK UNIVERSITY INDUSTRY-ACADEMIC COOPERATION FOUNDATION, priority 2022, published 2025) can be followed below.

This test deals with MDA-MB-231 breast cancer cells. Put plainly: Cell killing by 6-MP released from hydrogel versus 6-MP at same concentration, WST-1 assay. Type of test: cell-based. The note with it: 24 h treatment, same 6-MP concentration; FIG. 12. How it is done:
The apoptotic effect resulting from the release of anticancer agents was confirmed by comparing the effects of anticancer agents released due to chemical bond cleavage during photoirradiation with that of anticancer agents at the same concentration.
The three-dimensional hydrogels prepared according to Examples 1 to 3 to have a diameter of 8 mm and a height of 2 mm were stored together with 1 mL of PBS at 37° C. and 100 RPM. MDA-MB-231 breast cancer cells were inoculated at a density of 4×10^4 cells per well on a 48-well plate prepared with DMEM supplemented with 10% FBS and 1% penicillin/streptomycin and cultured at 37° C. for one day. After removal of the existing medium, cancer cells were treated with 50 μL of fresh medium and 150 μL of PBS containing released 6-MP, and incubated at 37° C. for 24 h. For the WST-1 assay, the cells were washed with PBS, treated with EZ-Cytox solution in each experimental group, incubated at 37° C. for 2 hours, and then measured by absorbance at 450 nm to confirm the cell apoptosis effect.

The structures appear in SMILES notation.

`S=c1nc[nH]c2nc[nH]c12`: the “breast cancer cells died / killed” value was determined as 70%.

As for `Sc1ncnc2nc[nH]c12` [6-MP, 6-mercaptopurine], the “breast cancer cells died / killed” value came out at 21%.
